pKd: −log10 of the molar value.
Experiments:
PameOBP1 = PameOBP1 (Periplaneta americana, UniProt B6E9U7); assay: Binding of fluorescent probe 1-NPN to PameOBP1 (saturation, Scatchard); details: read-out: dissociation constant of 1-NPN for PameOBP1
Protocol: (§1) Emission fluorescence spectra were measured on a Hitachi F-4500 fluorescence spectrophotometer following our previous studies. Firstly, dissociation constants of the PameOBPs for N-phenyl-1-naphtylamine (1-NPN) were calculated to determine the suitability of 1-NPN as a fluorescence reporter. After the determination of the reporter, the affinities of the PameOBPs for each ligand were measured using 2 μM 1-NPN as the fluorescent reporter and 0.25–2.5 μM or 2–40 μM as competitor, in at least three technical replicates. The binding data were analyzed following our previous studies.
(§2) To investigate the role of three PameOBPs in the detection of odorants, we firstly tested the binding affinity of PameOBPs to fluorescent probe 1-NPN. […] Saturation and linear Scatchard plots (Fig 5A) indicated single binding sites in the proteins with no allosteric effects. We were, therefore, able to use the fluorescence competitive binding assay to determine the binding affinities of these three PameOBPs to 87 odorants from apple, grape, peach, pear, the juice of these fruits, and beer.

PameOBP2 = PameOBP2 (Periplaneta americana, UniProt B6E9U8); assay: Binding of fluorescent probe 1-NPN to PameOBP2 (saturation, Scatchard); details: read-out: dissociation constant of 1-NPN for PameOBP2
Protocol: as §1, §2

PameOBP3 = PameOBP3 (Periplaneta americana, UniProt B6E9U9); assay: Binding of fluorescent probe 1-NPN to PameOBP3 (saturation, Scatchard); details: read-out: dissociation constant of 1-NPN for PameOBP3
Protocol: as §1, §2

PameOBP3, sequence (B6E9U9 entry or part of it): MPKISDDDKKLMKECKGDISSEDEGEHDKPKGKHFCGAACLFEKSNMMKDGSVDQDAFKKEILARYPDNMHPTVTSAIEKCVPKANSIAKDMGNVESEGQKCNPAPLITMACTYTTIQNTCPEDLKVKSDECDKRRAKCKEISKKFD
PameOBP1, sequence (B6E9U7 entry or part of it): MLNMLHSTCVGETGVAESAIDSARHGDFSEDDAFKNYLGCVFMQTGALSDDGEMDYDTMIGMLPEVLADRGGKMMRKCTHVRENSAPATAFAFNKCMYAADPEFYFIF
PameOBP2, sequence (B6E9U8 entry or part of it): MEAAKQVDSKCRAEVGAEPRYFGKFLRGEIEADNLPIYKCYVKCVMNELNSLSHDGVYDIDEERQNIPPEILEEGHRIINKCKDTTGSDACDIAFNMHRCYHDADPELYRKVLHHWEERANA

**Q.** With c1ccc(Nc2cccc3ccccc23)cc1 [1-NPN, N-phenyl-1-naphtylamine] as the compound, how does the pKd (PameOBP1) read?
**A.** 4.69

**Q.** And the pKd (PameOBP2)?
**A.** 5.09

**Q.** What about the pKd (PameOBP3) of the same compound?
**A.** 4.60

— publication PMC5232348, “Molecular and Functional Characterization of Three Odorant-Binding Protein from Periplaneta americana” (PLoS ONE, 2017)
